Assay results reported in BindingDB's records for patent US11649233 (Nanjing Transthera Biosciences, 2023).
pIC50: −log10 of the molar value.

Biological target: T1, Amine oxidase [copper-containing] 3 (Homo sapiens, UniProt Q16853)
T1 sequence (Q16853 whole entry): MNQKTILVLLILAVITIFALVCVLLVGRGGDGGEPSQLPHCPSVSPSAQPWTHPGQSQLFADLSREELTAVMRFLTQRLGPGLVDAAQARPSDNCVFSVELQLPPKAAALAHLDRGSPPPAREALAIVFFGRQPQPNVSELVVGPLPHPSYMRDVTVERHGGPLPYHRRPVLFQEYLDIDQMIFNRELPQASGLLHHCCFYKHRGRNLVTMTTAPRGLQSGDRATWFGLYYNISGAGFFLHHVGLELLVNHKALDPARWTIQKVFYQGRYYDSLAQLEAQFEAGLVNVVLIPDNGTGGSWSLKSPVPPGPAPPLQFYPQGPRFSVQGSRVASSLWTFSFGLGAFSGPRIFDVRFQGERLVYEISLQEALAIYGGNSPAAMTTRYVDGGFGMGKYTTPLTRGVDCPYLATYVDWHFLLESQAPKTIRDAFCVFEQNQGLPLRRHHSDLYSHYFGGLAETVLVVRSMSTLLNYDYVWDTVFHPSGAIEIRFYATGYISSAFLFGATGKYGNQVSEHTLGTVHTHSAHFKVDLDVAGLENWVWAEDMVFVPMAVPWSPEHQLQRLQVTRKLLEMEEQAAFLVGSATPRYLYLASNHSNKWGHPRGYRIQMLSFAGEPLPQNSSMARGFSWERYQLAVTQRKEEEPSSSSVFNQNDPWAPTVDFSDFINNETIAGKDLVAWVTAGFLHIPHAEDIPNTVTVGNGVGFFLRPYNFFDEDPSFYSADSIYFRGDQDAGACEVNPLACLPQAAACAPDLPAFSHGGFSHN
Test: Inhibition Activity of the Compound on rhVAP-1 and MAO-A/B
Method: Test substances: the compounds of the present invention shown in Table 1 and prepared according to the methods of the examples 1. Inhibition Activity of the Compounds on the rhVAP-1 Enzyme (1) Instrument, consumable and reagent Multifunctional microplate reader (MD, FlexStation 3), black bottom-impermeable 96-well plate (Corning), rhVAP-1 (PeproTech) (2) Preparation of Compound Concentration Gradient Solutions An appropriate amount of the test compound was dissolved in DMSO to 10 mM and stored. Before the experiment, an appropriate amount of 10 mM test compound mother liquor was diluted to 10 μM solution with DMSO. Then 3-fold gradient dilution with DMSO was performed, and 10 concentration gradients were formed.(3) Preparation of Enzyme Solutions. An appropriate amount of protein diluent was added to the rhVAP-1 powder to obtain 1 mg/mL of the mother liquor for storage. […] Then 50 μL of 2×substrate mixed solution was added to each well, and immediately the detection was performed with the microplate reader in a condition of an exciting light at 565 nm, an emitting light at 590 nm, the fluorescence intensity for detecting each well of 5 minutes/run, and a total detection time of 25 minutes.

pIC50: 7.23
Structure (SMILES): CC(C)N1CCc2cc(OC/C(=C/F)CN)ccc2C1=O [US11649233, Compound 4]
